Results taken from publication PMC8284926 (Journal of the American Chemical Society, 2021).

Columns and labels:
[1] = system: MEFs lacking Pol β (Pol β −/−); test: Cytotoxicity in Pol β null mouse embryonic fibroblasts; format: cell-based; conditions: MMS alone
[2] = target: DNA polymerase β (Pol β) (Homo sapiens, UniProt P06746); conditions: cited from earlier work

Structure (SMILES)	cytotoxicity relative to wild type MEFs [1]	selectivity for Pol β over Pol λ [2]
COS(C)(=O)=O [MMS, methylmethanesulfonate]	considerably more toxic	–
C=CCc1ccc(O)c(-c2ccc(O)c(CC=C)c2)c1 [honokiol]	–	not selective for Pol β over Pol λ
